{"source": "patent US8911705B2", "about": "“Diagnostic substance and method for the analysis of metabolism processes in the brain” (Leibniz-Institut fuer Neurobiologie Stiftung des …, priority 2005, dated 2014)", "key": {"[1]": {"test_system": "experimental animals", "conditions": "high thallium acetate doses needed for the method; animals sacrificed 15 minutes after administration; cited from earlier work"}, "[2]": {"test_system": "brain of rat after focal cerebral ischemia", "description": "Thallium is a potassium tracer and can detect changes in potassium metabolism, as occur, e.g., in brain infarcts, brain tumors, or degenerative diseases.\nShown are frontal sections in the plane of the anterior commissure (A, D) and images of the same sections (B, E).\nThe thallium is taken up essentially by the sodium-potassium pump and transport systems regulated by it and is thus energy-dependent. […] Scale bar in A: 500 μm, in B: 50 μm, in C: 25 μm, in D: 10 μm, in E: 25 μm and in F: 100 μm."}, "[3]": {"test_system": "brain", "conditions": "cited from earlier work"}}, "data": [{"compound": "CC(=O)[O-].[Tl+]", "note": "[thallium acetate]", "values": [{"measurement": "toxicity of the thallium dose used", "setting": "[1]", "value": "deadly"}]}, {"compound": "CCN(CC)C(=S)[S][201Tl]", "note": "[Tl-DDC, thallium-201 diethyldithiocarbamate]", "values": [{"measurement": "staining intensity (thallium) in infarct core", "setting": "[2]; 15 minutes after focal cerebral ischemia (hyperacute stage), infarct core", "value": "clearly reduced staining intensity"}, {"measurement": "staining intensity (thallium) in zone surrounding infarct core", "setting": "[2]; 15 minutes after focal cerebral ischemia, zone surrounding core vs contralateral side", "value": "clearly lower than in the undamaged contralateral side"}, {"measurement": "differences in thallium distribution ipsilateral and contralateral to the occluded vessel", "setting": "[2]; 7 days after focal cerebral ischemia (late time point)", "value": "less pronounced"}, {"measurement": "thallium staining of astrocytes in the infarct core", "setting": "[2]; hyperacute stage of cerebral ischemia, astrocytes", "value": "intensively stained"}, {"measurement": "thallium detection in neurons of the infarct core", "setting": "[2]; hyperacute stage of cerebral ischemia, neurons", "value": "cannot be detected"}, {"measurement": "cerebral uptake", "setting": "[3]", "value": "good cerebral uptake"}, {"measurement": "decomposition in the brain", "setting": "[3]", "value": "decomposes spontaneously in the brain"}]}, {"compound": "technetium-99m-diethyldithiocarbamate [^99 mTc-DDC]", "values": [{"measurement": "cerebral uptake", "setting": "[3]", "value": "good cerebral uptake"}, {"measurement": "decomposition in the brain", "setting": "[3]", "value": "essentially lower rate of decomposition in the brain"}, {"measurement": "retention in the brain", "setting": "[3]", "value": "retained there to a lesser extent"}]}]}
